Calls of active or inactive are those of the source. Rule as the data show it, for most assays here: actives have a measured Kd and inactives only a lower limit.
Key:
[1] = molecular target: Tyrosine-protein kinase ABL1 (Homo sapiens, UniProt P00519)
[2] = molecular target: Cyclin-dependent kinase 13 (Homo sapiens, UniProt Q14004)
[3] = molecular target: T1, Eukaryotic translation initiation factor 5B (Homo sapiens, UniProt O60841)
T1 sequence (O60841 whole entry): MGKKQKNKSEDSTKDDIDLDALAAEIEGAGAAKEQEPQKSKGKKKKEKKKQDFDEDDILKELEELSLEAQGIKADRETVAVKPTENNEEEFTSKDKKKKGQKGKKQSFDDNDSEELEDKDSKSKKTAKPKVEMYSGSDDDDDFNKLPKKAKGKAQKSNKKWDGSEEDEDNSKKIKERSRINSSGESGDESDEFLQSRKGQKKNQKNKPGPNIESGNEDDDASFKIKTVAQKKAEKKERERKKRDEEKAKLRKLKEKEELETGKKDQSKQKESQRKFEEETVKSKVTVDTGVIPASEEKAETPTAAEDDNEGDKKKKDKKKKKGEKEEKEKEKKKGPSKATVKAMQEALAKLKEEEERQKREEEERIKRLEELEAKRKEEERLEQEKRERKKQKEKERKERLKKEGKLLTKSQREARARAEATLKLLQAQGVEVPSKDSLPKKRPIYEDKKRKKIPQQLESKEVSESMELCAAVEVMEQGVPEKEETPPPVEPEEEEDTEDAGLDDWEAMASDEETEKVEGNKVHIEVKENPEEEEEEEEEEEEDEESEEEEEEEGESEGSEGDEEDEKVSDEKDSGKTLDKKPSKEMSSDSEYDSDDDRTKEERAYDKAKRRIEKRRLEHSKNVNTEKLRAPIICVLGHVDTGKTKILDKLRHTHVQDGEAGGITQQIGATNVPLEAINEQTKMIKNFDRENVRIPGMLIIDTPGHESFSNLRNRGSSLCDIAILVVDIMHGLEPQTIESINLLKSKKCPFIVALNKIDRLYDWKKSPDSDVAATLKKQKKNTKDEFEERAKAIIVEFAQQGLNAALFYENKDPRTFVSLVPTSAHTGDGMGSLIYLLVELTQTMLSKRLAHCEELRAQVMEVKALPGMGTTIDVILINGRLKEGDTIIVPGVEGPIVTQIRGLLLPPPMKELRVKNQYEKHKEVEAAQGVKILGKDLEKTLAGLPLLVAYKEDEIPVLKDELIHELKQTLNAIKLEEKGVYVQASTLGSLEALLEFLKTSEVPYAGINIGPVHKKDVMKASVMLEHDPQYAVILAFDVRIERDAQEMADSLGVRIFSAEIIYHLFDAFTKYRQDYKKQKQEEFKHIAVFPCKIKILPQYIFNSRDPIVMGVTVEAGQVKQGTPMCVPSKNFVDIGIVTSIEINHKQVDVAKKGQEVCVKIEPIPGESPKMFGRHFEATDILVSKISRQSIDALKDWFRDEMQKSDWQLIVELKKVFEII

[4] = molecular target: T2, Phenylalanine--tRNA ligase beta subunit (Homo sapiens, UniProt Q9NSD9)
T2 sequence (Q9NSD9 whole entry): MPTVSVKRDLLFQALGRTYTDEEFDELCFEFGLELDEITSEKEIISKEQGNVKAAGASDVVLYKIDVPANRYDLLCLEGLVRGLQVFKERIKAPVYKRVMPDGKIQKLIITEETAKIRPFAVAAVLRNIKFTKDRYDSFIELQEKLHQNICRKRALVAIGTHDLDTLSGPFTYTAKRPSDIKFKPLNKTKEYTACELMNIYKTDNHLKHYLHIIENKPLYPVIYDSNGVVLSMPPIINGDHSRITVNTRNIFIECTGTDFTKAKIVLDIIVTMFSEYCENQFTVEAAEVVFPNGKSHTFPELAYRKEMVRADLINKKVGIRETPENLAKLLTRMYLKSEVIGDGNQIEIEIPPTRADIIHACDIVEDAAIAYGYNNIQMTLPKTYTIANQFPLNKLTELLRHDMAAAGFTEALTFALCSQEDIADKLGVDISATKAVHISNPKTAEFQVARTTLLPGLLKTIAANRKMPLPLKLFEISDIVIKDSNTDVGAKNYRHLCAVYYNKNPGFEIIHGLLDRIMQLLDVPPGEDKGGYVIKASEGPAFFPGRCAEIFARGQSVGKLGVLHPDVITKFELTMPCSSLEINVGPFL

[5] = molecular target: T3, Inhibitor of nuclear factor kappa-B kinase subunit epsilon (Homo sapiens, UniProt Q14164)
T3 sequence (Q14164 whole entry): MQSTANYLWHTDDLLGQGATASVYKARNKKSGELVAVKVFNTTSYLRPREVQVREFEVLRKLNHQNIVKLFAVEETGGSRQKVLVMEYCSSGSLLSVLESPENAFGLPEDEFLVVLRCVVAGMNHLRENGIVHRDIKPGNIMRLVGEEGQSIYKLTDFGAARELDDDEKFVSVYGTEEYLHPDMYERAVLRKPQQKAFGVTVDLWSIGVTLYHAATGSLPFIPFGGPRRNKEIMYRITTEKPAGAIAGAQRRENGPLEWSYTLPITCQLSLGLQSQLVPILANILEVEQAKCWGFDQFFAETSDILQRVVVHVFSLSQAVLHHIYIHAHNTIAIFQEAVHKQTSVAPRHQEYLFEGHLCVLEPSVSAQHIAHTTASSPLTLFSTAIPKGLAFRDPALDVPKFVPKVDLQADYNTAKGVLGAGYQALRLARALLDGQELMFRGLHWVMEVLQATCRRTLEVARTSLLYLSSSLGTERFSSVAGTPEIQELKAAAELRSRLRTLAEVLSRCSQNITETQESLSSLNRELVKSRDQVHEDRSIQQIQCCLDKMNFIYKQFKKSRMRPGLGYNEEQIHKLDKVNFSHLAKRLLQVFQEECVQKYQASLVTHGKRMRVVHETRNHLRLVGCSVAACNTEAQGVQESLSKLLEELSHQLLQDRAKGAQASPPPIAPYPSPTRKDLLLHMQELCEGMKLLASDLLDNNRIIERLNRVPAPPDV

[6] = molecular target: Mitogen-activated protein kinase 7 (Homo sapiens, UniProt Q13164)
[7] = molecular target: Mitogen-activated protein kinase 8 (Homo sapiens, UniProt P45983)
[8] = molecular target: Rho-associated protein kinase 1 (Homo sapiens, UniProt Q13464)
[9] = molecular target: TRAF2 and NCK-interacting protein kinase (Homo sapiens, UniProt Q9UKE5)
Activated CDC42 kinase 1 = Activated CDC42 kinase 1 (Homo sapiens, UniProt Q07912)
Also: in the data inactive means no Kd found up to 30 µM.

Chain of TRAF2 and NCK-interacting protein kinase (Q9UKE5 whole entry): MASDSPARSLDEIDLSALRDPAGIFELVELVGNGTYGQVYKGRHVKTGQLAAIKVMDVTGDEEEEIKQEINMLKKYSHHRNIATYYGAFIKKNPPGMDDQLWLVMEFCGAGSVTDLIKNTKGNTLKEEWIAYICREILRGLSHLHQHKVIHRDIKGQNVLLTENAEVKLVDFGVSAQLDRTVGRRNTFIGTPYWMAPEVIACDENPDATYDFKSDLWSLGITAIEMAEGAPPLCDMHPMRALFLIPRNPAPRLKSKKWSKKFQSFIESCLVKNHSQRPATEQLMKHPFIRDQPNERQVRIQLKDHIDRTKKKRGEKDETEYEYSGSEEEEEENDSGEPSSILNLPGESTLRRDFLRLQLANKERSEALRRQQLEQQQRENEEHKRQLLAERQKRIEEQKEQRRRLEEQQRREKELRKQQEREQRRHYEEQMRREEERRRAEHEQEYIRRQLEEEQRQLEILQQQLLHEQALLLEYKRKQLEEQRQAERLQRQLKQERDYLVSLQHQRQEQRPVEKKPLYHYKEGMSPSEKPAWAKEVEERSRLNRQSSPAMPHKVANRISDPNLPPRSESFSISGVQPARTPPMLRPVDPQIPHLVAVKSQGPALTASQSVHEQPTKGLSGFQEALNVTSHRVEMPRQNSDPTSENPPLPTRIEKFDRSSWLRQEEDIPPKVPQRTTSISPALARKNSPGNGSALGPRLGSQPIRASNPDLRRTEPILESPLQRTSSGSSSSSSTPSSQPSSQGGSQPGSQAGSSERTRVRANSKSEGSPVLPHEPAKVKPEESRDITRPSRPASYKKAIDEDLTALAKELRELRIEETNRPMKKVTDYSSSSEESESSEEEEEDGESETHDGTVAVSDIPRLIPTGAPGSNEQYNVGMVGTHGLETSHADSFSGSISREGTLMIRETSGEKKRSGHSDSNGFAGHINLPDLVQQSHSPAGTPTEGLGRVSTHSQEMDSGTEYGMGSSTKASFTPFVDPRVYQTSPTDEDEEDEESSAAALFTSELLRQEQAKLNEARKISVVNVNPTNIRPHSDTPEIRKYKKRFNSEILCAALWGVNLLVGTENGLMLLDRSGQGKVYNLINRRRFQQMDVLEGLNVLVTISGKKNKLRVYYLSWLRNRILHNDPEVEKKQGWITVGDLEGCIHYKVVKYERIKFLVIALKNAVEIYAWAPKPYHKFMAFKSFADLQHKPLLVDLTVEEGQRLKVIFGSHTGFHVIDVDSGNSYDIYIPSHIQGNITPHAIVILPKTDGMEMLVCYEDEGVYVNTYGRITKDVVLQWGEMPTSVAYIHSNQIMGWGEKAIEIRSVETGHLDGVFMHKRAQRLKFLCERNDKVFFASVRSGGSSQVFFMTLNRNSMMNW
Chain of Cyclin-dependent kinase 13 (Q14004 whole entry): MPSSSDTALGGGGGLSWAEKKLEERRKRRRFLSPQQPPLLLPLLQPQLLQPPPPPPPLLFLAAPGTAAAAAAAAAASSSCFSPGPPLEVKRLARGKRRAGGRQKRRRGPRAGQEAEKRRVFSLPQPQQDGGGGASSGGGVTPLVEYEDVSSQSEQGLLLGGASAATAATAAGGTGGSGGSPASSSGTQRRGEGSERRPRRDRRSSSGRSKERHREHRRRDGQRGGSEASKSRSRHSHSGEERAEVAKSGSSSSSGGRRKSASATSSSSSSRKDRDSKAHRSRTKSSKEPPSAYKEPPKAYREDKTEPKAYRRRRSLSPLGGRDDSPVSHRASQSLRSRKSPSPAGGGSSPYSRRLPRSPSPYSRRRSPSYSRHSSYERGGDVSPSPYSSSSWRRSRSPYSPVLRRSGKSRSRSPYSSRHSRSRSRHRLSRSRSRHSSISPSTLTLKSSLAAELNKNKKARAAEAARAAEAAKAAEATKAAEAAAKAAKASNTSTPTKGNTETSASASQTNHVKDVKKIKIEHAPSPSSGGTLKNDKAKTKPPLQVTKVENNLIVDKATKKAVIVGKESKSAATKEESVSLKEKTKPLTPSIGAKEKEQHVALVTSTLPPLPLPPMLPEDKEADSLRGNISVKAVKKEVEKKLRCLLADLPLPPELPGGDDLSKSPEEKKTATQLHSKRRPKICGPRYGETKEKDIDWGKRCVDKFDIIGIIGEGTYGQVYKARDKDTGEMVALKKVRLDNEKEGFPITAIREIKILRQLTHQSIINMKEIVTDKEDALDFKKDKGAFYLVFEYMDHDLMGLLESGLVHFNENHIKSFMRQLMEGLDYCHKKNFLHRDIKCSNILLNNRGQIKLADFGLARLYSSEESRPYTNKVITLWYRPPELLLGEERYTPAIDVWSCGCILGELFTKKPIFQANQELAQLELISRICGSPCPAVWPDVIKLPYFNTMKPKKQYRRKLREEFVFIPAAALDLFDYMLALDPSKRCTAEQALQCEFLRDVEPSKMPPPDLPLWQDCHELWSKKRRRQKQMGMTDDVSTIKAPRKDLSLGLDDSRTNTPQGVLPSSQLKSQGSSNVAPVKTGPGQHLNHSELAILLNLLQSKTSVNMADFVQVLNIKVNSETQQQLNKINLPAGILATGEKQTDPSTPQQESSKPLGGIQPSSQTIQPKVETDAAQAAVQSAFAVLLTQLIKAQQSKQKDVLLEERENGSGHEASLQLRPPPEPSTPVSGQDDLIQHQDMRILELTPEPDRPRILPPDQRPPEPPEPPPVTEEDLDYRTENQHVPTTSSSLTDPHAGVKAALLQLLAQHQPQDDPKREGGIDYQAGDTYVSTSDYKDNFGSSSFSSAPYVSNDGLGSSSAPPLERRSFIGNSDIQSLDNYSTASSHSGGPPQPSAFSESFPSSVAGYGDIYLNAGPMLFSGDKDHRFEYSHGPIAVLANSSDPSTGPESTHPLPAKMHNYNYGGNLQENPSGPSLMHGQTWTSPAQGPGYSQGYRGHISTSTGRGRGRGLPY
Chain of Mitogen-activated protein kinase 7 (Q13164 whole entry): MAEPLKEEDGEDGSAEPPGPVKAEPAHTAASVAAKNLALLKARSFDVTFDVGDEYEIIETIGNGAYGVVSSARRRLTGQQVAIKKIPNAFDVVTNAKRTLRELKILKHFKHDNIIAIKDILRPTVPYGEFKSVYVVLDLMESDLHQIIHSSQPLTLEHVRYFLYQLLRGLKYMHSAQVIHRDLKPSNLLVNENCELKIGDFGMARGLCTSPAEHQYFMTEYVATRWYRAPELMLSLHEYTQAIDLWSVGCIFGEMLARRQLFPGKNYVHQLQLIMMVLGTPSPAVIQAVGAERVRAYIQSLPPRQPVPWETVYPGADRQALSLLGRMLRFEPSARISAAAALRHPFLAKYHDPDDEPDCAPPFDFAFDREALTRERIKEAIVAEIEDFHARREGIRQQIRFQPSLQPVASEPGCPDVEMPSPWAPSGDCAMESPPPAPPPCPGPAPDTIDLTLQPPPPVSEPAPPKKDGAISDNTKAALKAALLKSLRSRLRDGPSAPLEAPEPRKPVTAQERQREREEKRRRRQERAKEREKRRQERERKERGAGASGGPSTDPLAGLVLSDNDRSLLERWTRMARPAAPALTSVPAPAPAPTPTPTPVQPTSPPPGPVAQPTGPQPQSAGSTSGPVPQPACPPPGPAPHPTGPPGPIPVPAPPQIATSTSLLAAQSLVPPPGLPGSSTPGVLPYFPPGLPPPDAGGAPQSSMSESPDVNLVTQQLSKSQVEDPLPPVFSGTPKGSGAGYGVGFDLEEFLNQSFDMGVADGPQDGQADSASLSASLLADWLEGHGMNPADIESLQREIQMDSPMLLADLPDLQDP
Chain of Tyrosine-protein kinase ABL1 (P00519 whole entry): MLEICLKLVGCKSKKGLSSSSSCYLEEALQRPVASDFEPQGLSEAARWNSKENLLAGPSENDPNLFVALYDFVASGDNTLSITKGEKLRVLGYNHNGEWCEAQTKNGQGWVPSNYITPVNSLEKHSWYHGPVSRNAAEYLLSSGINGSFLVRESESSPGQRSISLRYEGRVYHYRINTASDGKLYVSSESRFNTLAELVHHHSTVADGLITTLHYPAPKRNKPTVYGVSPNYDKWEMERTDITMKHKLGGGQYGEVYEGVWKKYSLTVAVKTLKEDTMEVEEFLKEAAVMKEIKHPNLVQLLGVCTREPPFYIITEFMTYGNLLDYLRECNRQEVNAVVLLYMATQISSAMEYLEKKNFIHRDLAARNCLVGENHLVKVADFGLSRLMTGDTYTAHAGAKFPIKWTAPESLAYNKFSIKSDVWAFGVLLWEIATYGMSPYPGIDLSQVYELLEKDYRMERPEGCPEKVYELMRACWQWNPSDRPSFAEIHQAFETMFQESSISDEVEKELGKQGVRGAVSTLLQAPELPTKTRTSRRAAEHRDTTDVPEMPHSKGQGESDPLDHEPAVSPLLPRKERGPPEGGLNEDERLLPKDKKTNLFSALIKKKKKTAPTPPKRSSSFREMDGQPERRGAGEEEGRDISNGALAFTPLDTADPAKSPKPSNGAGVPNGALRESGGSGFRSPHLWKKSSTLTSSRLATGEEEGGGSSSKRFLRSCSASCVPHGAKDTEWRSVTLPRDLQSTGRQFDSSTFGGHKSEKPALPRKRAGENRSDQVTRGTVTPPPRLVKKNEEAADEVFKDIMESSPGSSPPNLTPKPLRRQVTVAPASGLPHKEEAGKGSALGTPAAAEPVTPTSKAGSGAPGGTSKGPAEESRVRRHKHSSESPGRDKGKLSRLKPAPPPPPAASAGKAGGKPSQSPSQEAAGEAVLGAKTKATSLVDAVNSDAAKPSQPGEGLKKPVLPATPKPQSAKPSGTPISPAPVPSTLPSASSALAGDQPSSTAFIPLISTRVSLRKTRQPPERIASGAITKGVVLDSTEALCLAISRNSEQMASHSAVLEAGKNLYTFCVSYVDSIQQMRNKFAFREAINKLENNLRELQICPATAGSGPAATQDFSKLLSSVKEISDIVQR

Row | Kd [1] | Kd [2] | Kd [3] | Kd [4] | Kd [5] | Kd [6] | Kd [7] | Kd [8] | Kd [9] | Kd (Activated CDC42 kinase 1) | SMILES
1 | > 30 µM (inactive) | > 30 µM (inactive) | > 30 µM (inactive) | > 30 µM (inactive) | > 30 µM (inactive) | > 30 µM (inactive) | > 30 µM (inactive) | > 30 µM (inactive) | > 30 µM (inactive) | > 30 µM (inactive) | COc1ccc(S(=O)(=O)N(C(C)=O)c2ccccc2/C=C/c2cc[n+]([O-])cc2)cc1 [HMN-214]
2 | > 30 µM (inactive) | > 30 µM (inactive) | > 30 µM (inactive) | > 30 µM (inactive) | > 30 µM (inactive) | > 30 µM (inactive) | > 30 µM (inactive) | > 30 µM (inactive) | > 30 µM (inactive) | > 30 µM (inactive) | Cn1cc(-c2cnc3ccc4ccc(CS(=O)(=O)NCc5ccccn5)cc4c(=O)c3c2)cn1 [MK-8033]
3 | > 30 µM (inactive) | > 30 µM (inactive) | > 30 µM (inactive) | > 30 µM (inactive) | > 30 µM (inactive) | > 30 µM (inactive) | > 30 µM (inactive) | > 30 µM (inactive) | > 30 µM (inactive) | > 30 µM (inactive) | COc1ncc(-c2ccc3nccc(-c4ccnnc4)c3c2)cc1NS(=O)(=O)c1ccc(F)cc1F [OMIPALISIB]
4 | > 30 µM (inactive) | > 30 µM (inactive) | > 30 µM (inactive) | > 30 µM (inactive) | 0.658 µM (active) | 3.89 µM (active) | > 30 µM (inactive) | > 30 µM (inactive) | > 30 µM (inactive) | > 30 µM (inactive) | Cc1nc(Nc2n[nH]c3c2CN(C(=O)N[C@H](CN(C)C)c2ccccc2)C3(C)C)c2sccc2n1 [PF-03758309]
5 | > 30 µM (inactive) | > 30 µM (inactive) | > 30 µM (inactive) | > 30 µM (inactive) | > 30 µM (inactive) | > 30 µM (inactive) | > 30 µM (inactive) | > 30 µM (inactive) | > 30 µM (inactive) | > 30 µM (inactive) | Cc1cnc(NC(=O)Nc2cc(Br)c(C)cc2OC[C@@H]2CNCCO2)cn1 [RABUSERTIB]
6 | > 30 µM (inactive) | > 30 µM (inactive) | > 30 µM (inactive) | > 30 µM (inactive) | > 30 µM (inactive) | > 30 µM (inactive) | > 30 µM (inactive) | > 30 µM (inactive) | > 30 µM (inactive) | > 30 µM (inactive) | Cn1cc(-c2cnn3c(N)c(Br)c([C@@H]4CCCNC4)nc23)cn1 [SCH-900776]
7 | > 30 µM (inactive) | > 30 µM (inactive) | > 30 µM (inactive) | > 30 µM (inactive) | > 30 µM (inactive) | > 30 µM (inactive) | > 30 µM (inactive) | > 30 µM (inactive) | > 30 µM (inactive) | > 30 µM (inactive) | CO[C@H]1C[C@@H]2CC[C@@H](C)[C@@](O)(O2)C(=O)C(=O)N2CCCC[C@H]2C(=O)O[C@H]([C@H](C)C[C@@H]2CC[C@@H](O)[C@H](OC)C2)CC(=O)[C@H](C)/C=C(\C)[C@@H](O)[C@@H](OC)C(=O)[C@H](C)C[C@H](C)/C=C/C=C/C=C/1C [SIROLIMUS]
8 | 0.31 µM (active) | > 30 µM (inactive) | > 30 µM (inactive) | > 30 µM (inactive) | > 30 µM (inactive) | > 30 µM (inactive) | > 30 µM (inactive) | > 30 µM (inactive) | > 30 µM (inactive) | 0.281 µM (active) | CCS(=O)(=O)c1cccc(-c2cc(C(=O)NC3CCN(C)CC3)c(C)c3[nH]c4ncc(C)cc4c23)c1 [TAK-901]
9 | > 30 µM (inactive) | > 30 µM (inactive) | > 30 µM (inactive) | > 30 µM (inactive) | > 30 µM (inactive) | > 30 µM (inactive) | > 30 µM (inactive) | > 30 µM (inactive) | > 30 µM (inactive) | > 30 µM (inactive) | CO[C@H]1C[C@@H]2CC[C@@H](C)[C@@](O)(O2)C(=O)C(=O)N2CCCC[C@H]2C(=O)O[C@H]([C@H](C)C[C@@H]2CC[C@@H](OC(=O)C(C)(CO)CO)[C@H](OC)C2)CC(=O)[C@H](C)/C=C(\C)[C@@H](O)[C@@H](OC)C(=O)[C@H](C)C[C@H](C)/C=C/C=C/C=C/1C [TEMSIROLIMUS]
10 | > 30 µM (inactive) | > 30 µM (inactive) | 0.232 µM | > 30 µM (inactive) | > 30 µM (inactive) | > 30 µM (inactive) | > 30 µM (inactive) | > 30 µM (inactive) | > 30 µM (inactive) | > 30 µM (inactive) | O=C1NC(=O)[C@@H](c2cn3c4c(cccc24)CCC3)[C@@H]1c1c[nH]c2ccccc12 [TIVANTINIB]
11 | 0.075 µM (active) | > 30 µM (inactive) | > 30 µM (inactive) | > 30 µM (inactive) | 1.39 µM (active) | > 30 µM (inactive) | > 30 µM (inactive) | > 30 µM (inactive) | 0.184 µM | 0.076 µM (active) | CC(C)c1cc(CNc2nc(Nc3cc(C4CC4)[nH]n3)cc(N3CCN(C)CC3)n2)on1 [XL-228]

Row | SMILES | Kd [1] | Kd [2] | Kd [3] | Kd [4] | Kd [5] | Kd [6] | Kd [7] | Kd [8] | Kd [9] | Kd (Activated CDC42 kinase 1)
12 | CCCCCCCCCCCCCCCCCCOP(=O)([O-])OC1CC[N+](C)(C)CC1 [PERIFOSINE] | > 30 µM (inactive) | > 30 µM (inactive) | > 30 µM (inactive) | > 30 µM (inactive) | > 30 µM (inactive) | > 30 µM (inactive) | > 30 µM (inactive) | > 30 µM (inactive) | > 30 µM (inactive) | > 30 µM (inactive)
13 | Cc1cc(Nc2ncnc3ccc(NC4=NC(C)(C)CO4)cc23)ccc1Oc1ccn2ncnc2c1 [TUCATINIB] | > 30 µM (inactive) | > 30 µM (inactive) | > 30 µM (inactive) | > 30 µM (inactive) | > 30 µM (inactive) | > 30 µM (inactive) | > 30 µM (inactive) | > 30 µM (inactive) | > 30 µM (inactive) | > 30 µM (inactive)
